PubChem BioAssay (NCI)
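96-well plates; 48 h exposure; 5 concentrations. Endpoints by linear interpolation between flanking doses. Not reached: highest tested concentration assigned. GI50 is the concentration that inhibits growth by half. TGI: concentration producing complete growth inhibition.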

How the values were obtained:
Assay in all cases: NCI-60 cell line screen, 48 h
ACHN renal = system: ACHN renal
SR leukemia = system: SR leukemia
NCI-H522 lung = system: NCI-H522 lung
TK-10 renal = system: TK-10 renal
MDA-MB-231 breast = system: MDA-MB-231 breast
SF-268 CNS = system: SF-268 CNS
DU-145 prostate = system: DU-145 prostate
SF-539 CNS = system: SF-539 CNS
SNB-75 CNS = system: SNB-75 CNS
CCRF-CEM leukemia = system: CCRF-CEM leukemia
PC-3 prostate = system: PC-3 prostate
HCC-2998 colon = system: HCC-2998 colon
SK-MEL-5 melanoma = system: SK-MEL-5 melanoma
OVCAR-5 ovarian = system: OVCAR-5 ovarian
U251 CNS = system: U251 CNS
HS 578T breast = system: HS 578T breast
COLO 205 colon = system: COLO 205 colon
SK-MEL-28 melanoma = system: SK-MEL-28 melanoma
OVCAR-8 ovarian = system: OVCAR-8 ovarian
SN12C renal = system: SN12C renal
HL-60(TB) leukemia = system: HL-60(TB) leukemia
T-47D breast = system: T-47D breast
HT29 colon = system: HT29 colon
UACC-62 melanoma = system: UACC-62 melanoma
A498 renal = system: A498 renal
LOX IMVI melanoma = system: LOX IMVI melanoma
UACC-257 melanoma = system: UACC-257 melanoma
SW-620 colon = system: SW-620 colon
MALME-3M melanoma = system: MALME-3M melanoma
SK-MEL-2 melanoma = system: SK-MEL-2 melanoma
786-0 renal = system: 786-0 renal
NCI-H23 lung = system: NCI-H23 lung
BT-549 breast = system: BT-549 breast
CAKI-1 renal = system: CAKI-1 renal
MOLT-4 leukemia = system: MOLT-4 leukemia
UO-31 renal = system: UO-31 renal
NCI-H226 lung = system: NCI-H226 lung
M14 melanoma = system: M14 melanoma
HCT-15 colon = system: HCT-15 colon
IGROV1 ovarian = system: IGROV1 ovarian
RPMI-8226 leukemia = system: RPMI-8226 leukemia
HOP-62 NSCLC = system: HOP-62 NSCLC
NCI/ADR-RES ovarian = system: NCI/ADR-RES ovarian
MCF7 breast = system: MCF7 breast
MDA-MB-435 = system: MDA-MB-435
SNB-19 CNS = system: SNB-19 CNS
NCI-H460 lung = system: NCI-H460 lung
K-562 leukemia = system: K-562 leukemia
A549 NSCLC = system: A549 NSCLC
SF-295 CNS = system: SF-295 CNS
OVCAR-4 ovarian = system: OVCAR-4 ovarian
OVCAR-3 ovarian = system: OVCAR-3 ovarian
KM12 colon = system: KM12 colon
SK-OV-3 ovarian = system: SK-OV-3 ovarian
HCT-116 colon = system: HCT-116 colon
RXF 393 renal = system: RXF 393 renal
HOP-92 NSCLC = system: HOP-92 NSCLC
EKVX NSCLC = system: EKVX NSCLC

CCCCCCCCCCCCSC(=N)N
GI50 (ACHN renal): 3890 nM
TGI (ACHN renal): 15900 nM
GI50 (SR leukemia): 1790 nM
TGI (SR leukemia): 4400 nM
GI50 (NCI-H522 lung): 5210 nM
TGI (NCI-H522 lung): 21600 nM
GI50 (TK-10 renal): 16400 nM
TGI (TK-10 renal): 32300 nM
GI50 (MDA-MB-231 breast): 2030 nM
TGI (MDA-MB-231 breast): 8280 nM
GI50 (SF-268 CNS): 7820 nM
TGI (SF-268 CNS): 25800 nM
GI50 (DU-145 prostate): 8980 nM
TGI (DU-145 prostate): 23000 nM
GI50 (SF-539 CNS): 15200 nM
TGI (SF-539 CNS): 32000 nM
GI50 (SNB-75 CNS): 16200 nM
TGI (SNB-75 CNS): 35000 nM
GI50 (CCRF-CEM leukemia): 8400 nM
TGI (CCRF-CEM leukemia): 26100 nM
GI50 (PC-3 prostate): 9130 nM
TGI (PC-3 prostate): 23000 nM
GI50 (HCC-2998 colon): 2310 nM
TGI (HCC-2998 colon): 5620 nM
GI50 (SK-MEL-5 melanoma): 12600 nM
TGI (SK-MEL-5 melanoma): 28200 nM
GI50 (OVCAR-5 ovarian): 12400 nM
TGI (OVCAR-5 ovarian): 25300 nM
GI50 (U251 CNS): 2640 nM
TGI (U251 CNS): 8740 nM
GI50 (HS 578T breast): 17300 nM
TGI (HS 578T breast): 38800 nM
GI50 (COLO 205 colon): 1980 nM
TGI (COLO 205 colon): 3720 nM
GI50 (SK-MEL-28 melanoma): 13700 nM
TGI (SK-MEL-28 melanoma): 27900 nM
GI50 (OVCAR-8 ovarian): 5770 nM
TGI (OVCAR-8 ovarian): 23400 nM
GI50 (SN12C renal): 8210 nM
TGI (SN12C renal): 21400 nM
GI50 (HL-60(TB) leukemia): 2020 nM
TGI (HL-60(TB) leukemia): 4270 nM
GI50 (T-47D breast): 2030 nM
TGI (T-47D breast): 4340 nM
GI50 (HT29 colon): 2200 nM
TGI (HT29 colon): 5730 nM
GI50 (UACC-62 melanoma): 15700 nM
TGI (UACC-62 melanoma): 31000 nM
GI50 (A498 renal): 15300 nM
TGI (A498 renal): 31400 nM
GI50 (LOX IMVI melanoma): 3580 nM
TGI (LOX IMVI melanoma): 13300 nM
GI50 (UACC-257 melanoma): 13800 nM
TGI (UACC-257 melanoma): 27300 nM
GI50 (SW-620 colon): 2730 nM
TGI (SW-620 colon): 8140 nM
GI50 (MALME-3M melanoma): 15000 nM
TGI (MALME-3M melanoma): 29500 nM
GI50 (SK-MEL-2 melanoma): 19500 nM
TGI (SK-MEL-2 melanoma): 36200 nM
GI50 (786-0 renal): 15300 nM
TGI (786-0 renal): 33900 nM
GI50 (NCI-H23 lung): 16300 nM
TGI (NCI-H23 lung): 32800 nM
GI50 (BT-549 breast): 18900 nM
TGI (BT-549 breast): 47100 nM
GI50 (CAKI-1 renal): 3790 nM
TGI (CAKI-1 renal): 14400 nM
GI50 (MOLT-4 leukemia): 2460 nM
TGI (MOLT-4 leukemia): 5850 nM
GI50 (UO-31 renal): 5710 nM
TGI (UO-31 renal): 19800 nM
GI50 (NCI-H226 lung): 18500 nM
TGI (NCI-H226 lung): 44500 nM
GI50 (M14 melanoma): 5160 nM
TGI (M14 melanoma): 17200 nM
GI50 (HCT-15 colon): 2960 nM
TGI (HCT-15 colon): 11500 nM
GI50 (IGROV1 ovarian): 2770 nM
GI50 (RPMI-8226 leukemia): 2940 nM
TGI (RPMI-8226 leukemia): 10200 nM
GI50 (HOP-62 NSCLC): 10700 nM
TGI (HOP-62 NSCLC): 28900 nM
GI50 (NCI/ADR-RES ovarian): 10500 nM
TGI (NCI/ADR-RES ovarian): 26300 nM
GI50 (MCF7 breast): 3440 nM
TGI (MCF7 breast): 15500 nM
GI50 (MDA-MB-435): 3900 nM
TGI (MDA-MB-435): 15300 nM
GI50 (SNB-19 CNS): 15700 nM
TGI (SNB-19 CNS): 45700 nM
GI50 (NCI-H460 lung): 3420 nM
TGI (NCI-H460 lung): 13400 nM
GI50 (K-562 leukemia): 2010 nM
TGI (K-562 leukemia): 4640 nM
GI50 (A549 NSCLC): 12900 nM
TGI (A549 NSCLC): 29500 nM
GI50 (SF-295 CNS): 2350 nM
TGI (SF-295 CNS): 5550 nM
GI50 (OVCAR-4 ovarian): 7930 nM
TGI (OVCAR-4 ovarian): 27900 nM
GI50 (OVCAR-3 ovarian): 10300 nM
TGI (OVCAR-3 ovarian): 26200 nM
GI50 (KM12 colon): 3330 nM
TGI (KM12 colon): 11300 nM
GI50 (SK-OV-3 ovarian): 17400 nM
TGI (SK-OV-3 ovarian): 33500 nM
GI50 (HCT-116 colon): 3860 nM
TGI (HCT-116 colon): 14900 nM
GI50 (RXF 393 renal): 6640 nM
TGI (RXF 393 renal): 26600 nM

COc1ccc2nc3cc(Cl)ccc3c(NCCCNCCC(C)O)c2c1 (stereo not given)
GI50 (ACHN renal): 192 nM
TGI (ACHN renal): 1680 nM
GI50 (SR leukemia): 156 nM
TGI (SR leukemia): 1740 nM
GI50 (NCI-H522 lung): 196 nM
TGI (NCI-H522 lung): 750 nM
GI50 (TK-10 renal): 497 nM
TGI (TK-10 renal): 2940 nM
GI50 (MDA-MB-231 breast): 203 nM
TGI (MDA-MB-231 breast): 1370 nM
GI50 (SF-268 CNS): 523 nM
TGI (SF-268 CNS): 2520 nM
GI50 (DU-145 prostate): 302 nM
TGI (DU-145 prostate): 1240 nM
GI50 (SF-539 CNS): 345 nM
TGI (SF-539 CNS): 1490 nM
GI50 (SNB-75 CNS): 568 nM
TGI (SNB-75 CNS): 1930 nM
GI50 (CCRF-CEM leukemia): 361 nM
TGI (CCRF-CEM leukemia): 2610 nM
GI50 (PC-3 prostate): 496 nM
TGI (PC-3 prostate): 2350 nM
GI50 (OVCAR-5 ovarian): 331 nM
TGI (OVCAR-5 ovarian): 2460 nM
GI50 (U251 CNS): 495 nM
TGI (U251 CNS): 2340 nM
GI50 (HS 578T breast): 1050 nM
TGI (HS 578T breast): 3620 nM
GI50 (COLO 205 colon): 217 nM
TGI (COLO 205 colon): 1290 nM
GI50 (OVCAR-8 ovarian): 426 nM
TGI (OVCAR-8 ovarian): 2540 nM
GI50 (HL-60(TB) leukemia): 1650 nM
TGI (HL-60(TB) leukemia): 3920 nM
GI50 (T-47D breast): 1040 nM
TGI (T-47D breast): 4040 nM
GI50 (HT29 colon): 172 nM
TGI (HT29 colon): 1250 nM
GI50 (A498 renal): 420 nM
TGI (A498 renal): 1540 nM
GI50 (LOX IMVI melanoma): 356 nM
TGI (LOX IMVI melanoma): 1460 nM
GI50 (UACC-257 melanoma): 1630 nM
TGI (UACC-257 melanoma): 3430 nM
GI50 (SW-620 colon): 234 nM
TGI (SW-620 colon): 2250 nM
GI50 (MALME-3M melanoma): 714 nM
TGI (MALME-3M melanoma): 2210 nM
GI50 (SK-MEL-2 melanoma): 704 nM
TGI (SK-MEL-2 melanoma): 2250 nM
GI50 (786-0 renal): 472 nM
TGI (786-0 renal): 1940 nM
GI50 (NCI-H23 lung): 360 nM
TGI (NCI-H23 lung): 2100 nM
GI50 (BT-549 breast): 1730 nM
TGI (BT-549 breast): 4130 nM
GI50 (CAKI-1 renal): 735 nM
TGI (CAKI-1 renal): 3430 nM
GI50 (MOLT-4 leukemia): 119 nM
TGI (MOLT-4 leukemia): 1580 nM
GI50 (UO-31 renal): 1110 nM
TGI (UO-31 renal): 3270 nM
GI50 (NCI-H226 lung): 943 nM
TGI (NCI-H226 lung): 3110 nM
GI50 (M14 melanoma): 590 nM
TGI (M14 melanoma): 2020 nM
GI50 (HCT-15 colon): 735 nM
TGI (HCT-15 colon): 3600 nM
GI50 (IGROV1 ovarian): 390 nM
TGI (IGROV1 ovarian): 2470 nM
GI50 (RPMI-8226 leukemia): 575 nM
TGI (RPMI-8226 leukemia): 3090 nM
GI50 (HOP-62 NSCLC): 389 nM
TGI (HOP-62 NSCLC): 2350 nM
GI50 (NCI/ADR-RES ovarian): 2460 nM
TGI (NCI/ADR-RES ovarian): 15500 nM
GI50 (MCF7 breast): 351 nM
TGI (MCF7 breast): 1720 nM
GI50 (MDA-MB-435): 504 nM
TGI (MDA-MB-435): 1790 nM
GI50 (SNB-19 CNS): 423 nM
TGI (SNB-19 CNS): 2690 nM
GI50 (NCI-H460 lung): 178 nM
TGI (NCI-H460 lung): 561 nM
GI50 (A549 NSCLC): 422 nM
TGI (A549 NSCLC): 2120 nM
GI50 (SF-295 CNS): 276 nM
TGI (SF-295 CNS): 1630 nM
GI50 (OVCAR-4 ovarian): 282 nM
TGI (OVCAR-4 ovarian): 1040 nM
GI50 (HOP-92 NSCLC): 535 nM
TGI (HOP-92 NSCLC): 2760 nM
GI50 (OVCAR-3 ovarian): 368 nM
TGI (OVCAR-3 ovarian): 1680 nM
GI50 (EKVX NSCLC): 473 nM
TGI (EKVX NSCLC): 2410 nM
GI50 (KM12 colon): 408 nM
TGI (KM12 colon): 1980 nM
GI50 (SK-OV-3 ovarian): 465 nM
TGI (SK-OV-3 ovarian): 2620 nM
GI50 (HCT-116 colon): 56.9 nM
TGI (HCT-116 colon): 1540 nM
GI50 (RXF 393 renal): 414 nM
TGI (RXF 393 renal): 1740 nM
